pIC50, pKi: −log10 of the molar value.
Key:
[1] = target: human mutant B-raf (HuBraf V600E) (Homo sapiens (Human), UniProt P15056, V600E); settings: at 10 μM compound concentration; POC = 100 − percent inhibition
Protocol: B-Raf Homogenous Time Resolved Fluorescence (HTRF) Kinase Assay
The final concentration of the kinase reaction buffer is 50 mM Tris-HCl pH 7.5, 10 mM MgCl2, 0.5% glucose, 0.5 mM DTT, 0.01% BSA. […] The detection reaction proceeds for one hour and is read on a RubyStar (BMG Labtech, Durham, N.C.) counter. IC50s for the test compounds are generated using Excel-XLfit software. For single concentration percent of control (POC;=100−percent inhibition) assays, compounds were assayed as above at a single test concentration of 10 M test compound.

PI3Kα = PI3Kα (Homo sapiens (Human), UniProt P42336); settings: read-out: PI3Kα AlphaScreen ® Ki
[2] = target: ProfilerPro Kinase Selectivity Assay Kit kinases (Homo sapiens, UniProt P49841); type: biochemical; settings: GSK3 beta; 1 μM compound concentration
Protocol: (§1) Compounds were profiled using a LabChip® EZ Reader II platform and a ProfilerPro Kinase Selectivity Assay Kit (Caliper Lifesciences Inc., Hopkinton, Mass.). Compounds were tested at a concentration of 1 M in duplicate, with mean data reported as percent of control (POC).

[3] = target: ProfilerPro Kinase Selectivity Assay Kit kinases (Homo sapiens, UniProt P28482); type: biochemical; settings: ERK2; 1 μM compound concentration
Protocol: as §1

[4] = target: ProfilerPro Kinase Selectivity Assay Kit kinases (Homo sapiens, UniProt Q16539); type: biochemical; settings: p38 alpha; 1 μM compound concentration
Protocol: as §1

[5] = target: ProfilerPro Kinase Selectivity Assay Kit kinases (Homo sapiens, UniProt P23443); type: biochemical; settings: p70S6K; 1 μM compound concentration
Protocol: as §1

[6] = target: ProfilerPro Kinase Selectivity Assay Kit kinases (Homo sapiens, UniProt Q16566); type: biochemical; settings: CAMK4; 1 μM compound concentration
Protocol: as §1

[7] = target: ProfilerPro Kinase Selectivity Assay Kit kinases (Homo sapiens, UniProt P31749); type: biochemical; settings: AKT1; 1 μM compound concentration
Protocol: as §1

[8] = target: ProfilerPro Kinase Selectivity Assay Kit kinases (Homo sapiens, UniProt P04049); type: biochemical; settings: cRAF; 1 μM compound concentration
Protocol: as §1

[9] = target: ProfilerPro Kinase Selectivity Assay Kit kinases (Homo sapiens, UniProt Q13976); type: biochemical; settings: PKGa2; 1 μM compound concentration
Protocol: as §1

[10] = target: ProfilerPro Kinase Selectivity Assay Kit kinases (Homo sapiens, UniProt Q05513); type: biochemical; settings: PKC zeta; 1 μM compound concentration
Protocol: as §1

[11] = target: ProfilerPro Kinase Selectivity Assay Kit kinases (Homo sapiens, UniProt Q9P1W9); type: biochemical; settings: PIM2; 1 μM compound concentration
Protocol: as §1

[12] = target: ProfilerPro Kinase Selectivity Assay Kit kinases (Homo sapiens, UniProt P06239); type: biochemical; settings: LCK; 1 μM compound concentration
Protocol: as §1

[13] = target: ProfilerPro Kinase Selectivity Assay Kit kinases (Homo sapiens, UniProt Q15418); type: biochemical; settings: RSK1; 1 μM compound concentration
Protocol: as §1

[14] = target: ProfilerPro Kinase Selectivity Assay Kit kinases (Homo sapiens, UniProt O96017); type: biochemical; settings: CHK2; 1 μM compound concentration
Protocol: as §1

[15] = test system: phosphorylation of Akt at Serine 473 in U87 MG cells; assay: cells; settings: Homo sapiens, U-87 MG, 2 h, read-out: U87Cell IC50, pAkt (Ser 473), U87 MG cells, two hours with compound

human mutant B-raf (HuBraf V600E), sequence (P15056 whole entry V600E): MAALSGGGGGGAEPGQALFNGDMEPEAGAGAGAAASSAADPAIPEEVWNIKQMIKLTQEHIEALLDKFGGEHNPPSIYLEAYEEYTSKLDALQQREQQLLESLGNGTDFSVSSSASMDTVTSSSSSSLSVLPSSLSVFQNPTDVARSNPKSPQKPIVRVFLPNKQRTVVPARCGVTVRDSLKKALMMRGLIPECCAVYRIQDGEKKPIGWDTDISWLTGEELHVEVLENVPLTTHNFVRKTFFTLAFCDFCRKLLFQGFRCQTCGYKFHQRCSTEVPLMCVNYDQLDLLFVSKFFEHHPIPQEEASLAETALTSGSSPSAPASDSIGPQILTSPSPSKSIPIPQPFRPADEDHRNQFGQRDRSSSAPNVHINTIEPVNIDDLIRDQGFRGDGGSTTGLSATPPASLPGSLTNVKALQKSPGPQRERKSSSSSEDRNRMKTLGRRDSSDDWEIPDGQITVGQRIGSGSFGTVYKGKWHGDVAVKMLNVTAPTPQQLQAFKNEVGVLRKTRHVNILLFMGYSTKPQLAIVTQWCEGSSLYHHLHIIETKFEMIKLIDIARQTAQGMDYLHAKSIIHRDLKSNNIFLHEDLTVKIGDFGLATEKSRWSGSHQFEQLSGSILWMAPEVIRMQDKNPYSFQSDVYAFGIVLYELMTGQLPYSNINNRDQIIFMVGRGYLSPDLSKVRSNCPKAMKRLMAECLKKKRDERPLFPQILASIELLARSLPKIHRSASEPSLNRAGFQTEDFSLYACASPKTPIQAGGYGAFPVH
ProfilerPro Kinase Selectivity Assay Kit kinases (Homo sapiens, UniProt P28482), sequence (P28482 2-360 limits assumed): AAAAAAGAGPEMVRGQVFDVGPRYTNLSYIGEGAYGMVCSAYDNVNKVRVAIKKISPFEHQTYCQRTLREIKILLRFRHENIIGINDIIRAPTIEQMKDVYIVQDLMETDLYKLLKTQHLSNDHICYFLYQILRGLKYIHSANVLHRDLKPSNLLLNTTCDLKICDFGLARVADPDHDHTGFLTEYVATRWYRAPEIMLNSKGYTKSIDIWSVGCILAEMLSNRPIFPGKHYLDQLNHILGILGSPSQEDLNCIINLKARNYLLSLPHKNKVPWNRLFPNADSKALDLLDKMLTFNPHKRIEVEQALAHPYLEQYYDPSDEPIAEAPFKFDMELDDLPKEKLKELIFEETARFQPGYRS
PI3Kα, sequence (P42336 whole entry): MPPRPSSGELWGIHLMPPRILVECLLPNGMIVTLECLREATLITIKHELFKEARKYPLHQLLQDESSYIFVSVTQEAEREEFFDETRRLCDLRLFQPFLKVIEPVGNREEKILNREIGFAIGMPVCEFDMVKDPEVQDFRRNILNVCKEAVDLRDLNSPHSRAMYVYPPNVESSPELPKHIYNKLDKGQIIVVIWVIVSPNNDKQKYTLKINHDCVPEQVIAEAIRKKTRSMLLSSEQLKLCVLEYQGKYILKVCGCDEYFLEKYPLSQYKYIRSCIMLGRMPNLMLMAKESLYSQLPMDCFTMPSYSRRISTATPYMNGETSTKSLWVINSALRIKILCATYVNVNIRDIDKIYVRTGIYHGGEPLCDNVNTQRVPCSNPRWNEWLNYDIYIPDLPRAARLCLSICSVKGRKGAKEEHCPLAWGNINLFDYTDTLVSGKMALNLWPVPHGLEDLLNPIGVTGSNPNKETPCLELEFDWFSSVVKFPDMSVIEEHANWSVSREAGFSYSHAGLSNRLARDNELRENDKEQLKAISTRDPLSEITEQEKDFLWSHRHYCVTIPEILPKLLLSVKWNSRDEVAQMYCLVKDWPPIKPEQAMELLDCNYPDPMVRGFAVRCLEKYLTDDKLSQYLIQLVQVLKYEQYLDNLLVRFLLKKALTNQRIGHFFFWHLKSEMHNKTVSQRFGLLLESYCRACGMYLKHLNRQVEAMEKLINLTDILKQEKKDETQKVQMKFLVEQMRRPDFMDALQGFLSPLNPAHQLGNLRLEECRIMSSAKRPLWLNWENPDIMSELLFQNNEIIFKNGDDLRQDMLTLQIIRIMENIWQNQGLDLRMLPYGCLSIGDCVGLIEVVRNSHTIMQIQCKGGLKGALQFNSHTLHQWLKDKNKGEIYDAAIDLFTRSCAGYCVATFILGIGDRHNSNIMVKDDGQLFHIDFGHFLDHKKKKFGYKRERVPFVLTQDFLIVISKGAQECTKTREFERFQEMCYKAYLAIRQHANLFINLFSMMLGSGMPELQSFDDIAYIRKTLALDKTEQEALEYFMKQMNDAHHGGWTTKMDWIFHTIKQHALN
PI3Kα, sequence (P27986 whole entry partner): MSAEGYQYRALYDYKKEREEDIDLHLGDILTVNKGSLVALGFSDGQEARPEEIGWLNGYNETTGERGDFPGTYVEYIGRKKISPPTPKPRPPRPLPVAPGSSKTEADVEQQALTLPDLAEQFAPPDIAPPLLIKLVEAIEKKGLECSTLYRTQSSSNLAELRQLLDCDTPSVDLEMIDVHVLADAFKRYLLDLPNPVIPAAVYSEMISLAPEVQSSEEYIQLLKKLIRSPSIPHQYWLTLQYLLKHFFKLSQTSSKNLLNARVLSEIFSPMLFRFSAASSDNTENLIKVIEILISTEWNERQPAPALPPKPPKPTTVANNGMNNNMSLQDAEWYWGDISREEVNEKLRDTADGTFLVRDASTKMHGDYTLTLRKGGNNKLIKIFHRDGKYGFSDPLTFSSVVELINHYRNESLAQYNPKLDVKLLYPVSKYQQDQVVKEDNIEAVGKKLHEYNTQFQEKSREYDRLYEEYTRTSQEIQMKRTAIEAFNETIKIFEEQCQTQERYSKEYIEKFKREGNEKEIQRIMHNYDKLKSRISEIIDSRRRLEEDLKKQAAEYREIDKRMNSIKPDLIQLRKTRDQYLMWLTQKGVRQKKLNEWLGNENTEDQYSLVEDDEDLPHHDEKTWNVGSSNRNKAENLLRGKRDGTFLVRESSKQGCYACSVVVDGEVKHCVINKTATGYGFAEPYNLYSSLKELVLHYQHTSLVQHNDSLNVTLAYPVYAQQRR
ProfilerPro Kinase Selectivity Assay Kit kinases (Homo sapiens, UniProt P06239), sequence (P06239 2-509 limits assumed): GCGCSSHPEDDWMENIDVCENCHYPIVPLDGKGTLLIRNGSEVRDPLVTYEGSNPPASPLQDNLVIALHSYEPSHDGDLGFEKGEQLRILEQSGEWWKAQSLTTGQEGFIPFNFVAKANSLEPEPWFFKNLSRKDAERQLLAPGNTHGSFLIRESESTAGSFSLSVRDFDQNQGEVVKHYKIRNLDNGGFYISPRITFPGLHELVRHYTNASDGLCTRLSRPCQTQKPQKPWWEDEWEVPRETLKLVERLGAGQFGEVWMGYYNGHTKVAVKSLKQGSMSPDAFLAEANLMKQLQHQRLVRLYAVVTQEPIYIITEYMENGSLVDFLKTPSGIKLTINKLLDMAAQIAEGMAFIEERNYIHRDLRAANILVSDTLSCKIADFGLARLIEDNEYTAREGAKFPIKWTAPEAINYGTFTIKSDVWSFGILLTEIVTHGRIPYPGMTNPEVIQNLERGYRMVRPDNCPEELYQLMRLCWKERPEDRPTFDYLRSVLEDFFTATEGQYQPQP
ProfilerPro Kinase Selectivity Assay Kit kinases (Homo sapiens, UniProt Q16539), sequence (Q16539 2-360 limits assumed): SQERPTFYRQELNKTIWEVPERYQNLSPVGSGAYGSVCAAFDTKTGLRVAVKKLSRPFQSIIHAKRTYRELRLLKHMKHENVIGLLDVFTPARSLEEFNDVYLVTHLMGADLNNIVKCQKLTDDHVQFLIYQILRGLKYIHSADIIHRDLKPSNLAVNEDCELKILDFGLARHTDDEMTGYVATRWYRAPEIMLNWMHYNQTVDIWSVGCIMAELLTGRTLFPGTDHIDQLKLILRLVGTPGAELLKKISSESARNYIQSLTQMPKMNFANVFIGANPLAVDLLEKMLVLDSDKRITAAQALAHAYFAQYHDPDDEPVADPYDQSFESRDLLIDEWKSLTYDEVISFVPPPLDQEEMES
ProfilerPro Kinase Selectivity Assay Kit kinases (Homo sapiens, UniProt Q13976), sequence (Q13976 2-671 limits assumed): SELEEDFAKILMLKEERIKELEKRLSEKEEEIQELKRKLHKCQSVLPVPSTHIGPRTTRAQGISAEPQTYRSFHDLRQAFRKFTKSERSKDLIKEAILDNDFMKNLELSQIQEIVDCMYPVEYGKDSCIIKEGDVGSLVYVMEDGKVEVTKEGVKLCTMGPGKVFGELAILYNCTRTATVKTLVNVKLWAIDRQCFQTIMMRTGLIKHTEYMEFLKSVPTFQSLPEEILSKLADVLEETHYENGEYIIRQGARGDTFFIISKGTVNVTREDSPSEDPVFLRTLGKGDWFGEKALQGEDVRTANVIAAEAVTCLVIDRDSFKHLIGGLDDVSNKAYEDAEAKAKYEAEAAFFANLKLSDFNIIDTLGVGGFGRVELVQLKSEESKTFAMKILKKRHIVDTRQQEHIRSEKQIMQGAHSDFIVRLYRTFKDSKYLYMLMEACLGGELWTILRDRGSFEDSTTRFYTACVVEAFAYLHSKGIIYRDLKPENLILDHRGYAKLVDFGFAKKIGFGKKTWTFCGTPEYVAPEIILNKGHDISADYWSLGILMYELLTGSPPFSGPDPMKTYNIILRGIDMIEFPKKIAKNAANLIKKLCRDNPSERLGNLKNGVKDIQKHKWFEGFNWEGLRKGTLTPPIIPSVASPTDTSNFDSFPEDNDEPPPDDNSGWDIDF

## c1cnc(Nc2cccc3[nH]ccc23)c(-c2ncnc3[nH]cnc23)c1 [Example 19, N-(3-(9H-Purin-6-yl)Pyridin-2-yl)-1H-Indol-4-Amine]
[1]
  Mutant B-raf HTRF Assay POC Mean n = 2: 7% of Control (POC)
PI3Kα
  pKi: 5.25
[2]
  POC (Percent of control) GSK3 beta: 79 POC
[3]
  POC (Percent of control) ERK2: 94 POC
[4]
  POC (Percent of control) p38 alpha: 86 POC
[5]
  POC (Percent of control) p70S6K: 91 POC
[6]
  POC (Percent of control) CAMK4: 77 POC
[7]
  POC (Percent of control) AKT1: 94 POC
[8]
  POC (Percent of control) cRAF: 56 POC
[9]
  POC (Percent of control) PKGa2: 93 POC
[10]
  POC (Percent of control) PKC zeta: 98 POC
[11]
  POC (Percent of control) PIM2: 105 POC
[12]
  POC (Percent of control) LCK: 70 POC
[13]
  POC (Percent of control) RSK1: 87 POC
[14]
  POC (Percent of control) CHK2: 18 POC
[15]
  pIC50: 5.63

## Cc1nc(N)nc(-c2cc(CN3CCN(S(C)(=O)=O)CC3)cnc2Nc2cccc(O)c2)n1 [Example 30, 3-(3-(4-Amino-6-Methyl-1,3,5-Triazin-2-yl)-5-((4-(Methyl Sulfonyl)Piperazin-1-yl)Methyl)Pyridin-2-Ylamino)Phenol]
[1]
  Mutant B-raf HTRF Assay POC Mean n = 2: 92% of Control (POC)
PI3Kα
  pKi: 8.10
[2]
  POC (Percent of control) GSK3 beta: 104 POC
[3]
  POC (Percent of control) ERK2: 102 POC
[4]
  POC (Percent of control) p38 alpha: 99 POC
[5]
  POC (Percent of control) p70S6K: 97 POC
[6]
  POC (Percent of control) CAMK4: 94 POC
[7]
  POC (Percent of control) AKT1: 102 POC
[8]
  POC (Percent of control) cRAF: 95 POC
[9]
  POC (Percent of control) PKGa2: 98 POC
[10]
  POC (Percent of control) PKC zeta: 110 POC
[11]
  POC (Percent of control) PIM2: 99 POC
[12]
  POC (Percent of control) LCK: 102 POC
[13]
  POC (Percent of control) RSK1: 103 POC
[14]
  POC (Percent of control) CHK2: 106 POC
[15]
  pIC50: 7.52

## Cc1cnc(Nc2cccc3[nH]ccc23)c(-c2nc(C)nc(N)n2)c1 [Example 46, N-(3-(4-Amino-6-Methyl-1,3,5-Triazin-2-yl)-5-Methylpyridin-2-yl)-1H-Indol-4-Amine]
[1]
  Mutant B-raf HTRF Assay POC Mean n = 2: 68% of Control (POC)
PI3Kα
  pKi: 6.89
[2]
  POC (Percent of control) GSK3 beta: 95 POC
[3]
  POC (Percent of control) ERK2: 116 POC
[4]
  POC (Percent of control) p38 alpha: 96 POC
[5]
  POC (Percent of control) p70S6K: 90 POC
[6]
  POC (Percent of control) CAMK4: 96 POC
[7]
  POC (Percent of control) AKT1: 93 POC
[8]
  POC (Percent of control) cRAF: 91 POC
[9]
  POC (Percent of control) PKGa2: 95 POC
[10]
  POC (Percent of control) PKC zeta: 198 POC
[11]
  POC (Percent of control) PIM2: 99 POC
[12]
  POC (Percent of control) LCK: 96 POC
[13]
  POC (Percent of control) RSK1: 100 POC
[14]
  POC (Percent of control) CHK2: 101 POC
[15]
  pIC50: 7.10

## Cc1cnc(Nc2cccc3[nH]ncc23)c(-c2nc(C)nc(N)n2)c1 [Example 47, N-(3-(4-Amino-6-Methyl-1,3,5-Triazin-2-yl)-5-Methylpyridine-2-yl)-1H-Indazol-4-Amine]
[1]
  Mutant B-raf HTRF Assay POC Mean n = 2: 91% of Control (POC)
PI3Kα
  pKi: 7.44
[2]
  POC (Percent of control) GSK3 beta: 97 POC
[3]
  POC (Percent of control) ERK2: 104 POC
[4]
  POC (Percent of control) p38 alpha: 91 POC
[5]
  POC (Percent of control) p70S6K: 60 POC
[6]
  POC (Percent of control) CAMK4: 91 POC
[7]
  POC (Percent of control) AKT1: 50 POC
[8]
  POC (Percent of control) cRAF: 56 POC
[9]
  POC (Percent of control) PKGa2: 80 POC
[10]
  POC (Percent of control) PKC zeta: 102 POC
[11]
  POC (Percent of control) PIM2: 104 POC
[12]
  POC (Percent of control) LCK: 61 POC
[13]
  POC (Percent of control) RSK1: 105 POC
[14]
  POC (Percent of control) CHK2: 99 POC
[15]
  pIC50: 6.71

## CCc1cnc(Nc2ccc(OC)nc2)c(-c2nc(C)nc3[nH]cnc23)c1 [Example 74, 5-ethyl-N-(6-methoxypyridin-3-yl)-3-(2-methyl-9H-purin-6-yl)pyridin-2-amine]
[1]
  Mutant B-raf HTRF Assay POC Mean n = 2: 111% of Control (POC)
PI3Kα
  pKi: 7.96
[2]
  POC (Percent of control) GSK3 beta: 100 POC
[3]
  POC (Percent of control) ERK2: 101 POC
[4]
  POC (Percent of control) p38 alpha: 101 POC
[5]
  POC (Percent of control) p70S6K: 98 POC
[6]
  POC (Percent of control) CAMK4: 95 POC
[7]
  POC (Percent of control) AKT1: 109 POC
[8]
  POC (Percent of control) cRAF: 101 POC
[9]
  POC (Percent of control) PKGa2: 92 POC
[10]
  POC (Percent of control) PKC zeta: 94 POC
[11]
  POC (Percent of control) PIM2: 92 POC
[12]
  POC (Percent of control) LCK: 98 POC
[13]
  POC (Percent of control) RSK1: 100 POC
[14]
  POC (Percent of control) CHK2: 98 POC
[15]
  pIC50: 7.05

## COc1ccc(Nc2ncc(CN3CCN(C(C)=O)CC3)cc2-c2nc(C)nc3[nH]cnc23)cn1 [Example 89, 1-(4-((6-(6-methoxypyridin-3-ylamino)-5-(2-methyl-9H-purin-6-yl)pyridin-3-yl)methyl)piperazin-1-yl)ethanone]
[1]
  Mutant B-raf HTRF Assay POC Mean n = 2: 102% of Control (POC)
PI3Kα
  pKi: 7.38
[2]
  POC (Percent of control) GSK3 beta: 100 POC
[3]
  POC (Percent of control) ERK2: 106 POC
[4]
  POC (Percent of control) p38 alpha: 100 POC
[5]
  POC (Percent of control) p70S6K: 89 POC
[6]
  POC (Percent of control) CAMK4: 109 POC
[7]
  POC (Percent of control) AKT1: 102 POC
[8]
  POC (Percent of control) cRAF: 99 POC
[9]
  POC (Percent of control) PKGa2: 87 POC
[10]
  POC (Percent of control) PKC zeta: 109 POC
[11]
  POC (Percent of control) PIM2: 93 POC
[12]
  POC (Percent of control) LCK: 101 POC
[13]
  POC (Percent of control) RSK1: 99 POC
[14]
  POC (Percent of control) CHK2: 97 POC
[15]
  pIC50: 6.84
